Assay results taken from patent US8748575B2, “Therapeutic peptides” (Combimab, Inc., priority 2010, dated 2014).
Like-named read-outs stand apart in the source and are kept apart here. Residues, ends and D or L forms follow the SMILES beside them.

Columns and labels:
GCC [1] = target: T1, GCC (Homo sapiens, UniProt P25092); conditions: read-out: affinity for the interaction with GCC, cited from earlier work
T1 construct: human small intestine (n=20) and colon (n=24) specimens; host or cells: human small intestine and colon specimens

GCC [2] = target: T2, GCC (Rattus norvegicus, UniProt P23897); set-up: GCC expressed in the duodenum, cecum and colon; host or cells: intestinal tissue (duodenum, cecum, colon); conditions: GCC expressed in the duodenum, cecum and colon; read-out: affinity (Ki) for GCC; cited from earlier work
T2 sequence (P23897 23-1072): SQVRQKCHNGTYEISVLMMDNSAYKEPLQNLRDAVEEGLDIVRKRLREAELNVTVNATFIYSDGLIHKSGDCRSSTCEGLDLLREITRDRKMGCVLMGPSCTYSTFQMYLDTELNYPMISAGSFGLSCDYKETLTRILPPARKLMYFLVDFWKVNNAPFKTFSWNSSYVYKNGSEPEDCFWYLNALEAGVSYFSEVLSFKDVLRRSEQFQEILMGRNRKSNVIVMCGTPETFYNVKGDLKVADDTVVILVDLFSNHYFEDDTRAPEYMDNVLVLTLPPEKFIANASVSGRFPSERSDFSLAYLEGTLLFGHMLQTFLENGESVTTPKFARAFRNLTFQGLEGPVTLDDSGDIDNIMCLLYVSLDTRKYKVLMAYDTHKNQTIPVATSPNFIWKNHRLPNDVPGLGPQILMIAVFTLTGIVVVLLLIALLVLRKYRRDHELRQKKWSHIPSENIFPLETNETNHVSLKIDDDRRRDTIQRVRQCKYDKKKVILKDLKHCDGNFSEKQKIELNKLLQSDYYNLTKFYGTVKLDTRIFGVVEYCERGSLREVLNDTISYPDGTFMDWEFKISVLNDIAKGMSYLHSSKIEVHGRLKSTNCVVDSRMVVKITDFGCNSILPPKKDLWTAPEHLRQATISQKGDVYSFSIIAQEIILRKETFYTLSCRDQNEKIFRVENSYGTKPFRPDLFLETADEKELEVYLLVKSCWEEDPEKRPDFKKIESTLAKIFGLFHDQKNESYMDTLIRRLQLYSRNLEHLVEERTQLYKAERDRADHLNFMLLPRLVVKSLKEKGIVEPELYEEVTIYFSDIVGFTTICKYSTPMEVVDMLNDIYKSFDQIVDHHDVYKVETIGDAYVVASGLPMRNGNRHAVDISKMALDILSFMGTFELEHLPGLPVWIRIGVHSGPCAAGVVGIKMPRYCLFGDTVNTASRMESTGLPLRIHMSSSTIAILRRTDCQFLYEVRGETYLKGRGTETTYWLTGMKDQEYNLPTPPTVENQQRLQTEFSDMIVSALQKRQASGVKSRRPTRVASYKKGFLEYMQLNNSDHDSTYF

T84 cells (GC-C) = test: Intact T84 cell cGMP accumulation assay; assay type: cell-based, Human; set-up: key to CGMP accumulation assay: 1+ (lowest activity/potency); ++: Results are graded from 1+ (lowest activity/potency) to 5+ (highest activity/potency); +++: Results are graded from 1+ (lowest activity/potency) to 5+ (highest activity/potency); ++++: Results are graded from 1+ (lowest activity/potency) to 5+ (highest activity/potency); +++++: 5+ (highest activity/potency); conditions: for CGMP accumulation assay: graded activity/potency, T84 cells; for activity in the cGMP accumulation assay: FIG. 22, compared to STa peptide
Method: The intact T84 cell assay was used to detect the accumulation of cGMP, the product of agonism, upon interaction with a compound (Visweswariah et al., 1992). Human colorectal adenocarcinoma T84 cells were grown to confluence in a 24 well plate using DMEM/F12 medium supplemented with 10% FBS. The media was aspirated from each well and the cells were washed three times with Dulbecco's PBS (1×, no Ca2+ or Mg2+). The cells were then incubated for 30 minutes at 37° C. with 1 mM […] (IBMX) in Optimem medium (no FBS), either with or without potential antagonists. After incubation under these conditions, a 10× concentrated stock of a known GC-C agonist (e.g., STa (5-18)) in PBS was added to each well and the incubation continued for an additional 15 min at 37° C.
The reaction was stopped by the addition of 200 μL of Passive Lysis Buffer (Promega) to each well. The supernatant was removed for cGMP quantitation by RIA using ^125I-labeled cGMP 54 antibody relative to an external cGMP standard curve. The cells were scraped from the surface for protein content determination using a BioRad Protein Assay.

GCC [3] = target: T2, GCC; set-up: ligated intestinal loops from Sprague Dawley and Wistar rats; host or cells: rat jejunal and ileal loops in vivo; conditions: ileum relative to jejunum; cited from earlier work
GCC [4] = conditions: GCC expressed in the jejunum and cecum of the calf; cited from earlier work
[5] = Stability in rat intestinal fluid (Kessler 2008, 2009); assay type: in vitro ADME; conditions: ileal vs duodenal fluid
Method: According to the present invention, there are additional reasons why the distal jejunum, ileum, cecum and proximal colon are the preferred targets for a GCCR agonist. […] ST peptides are stable in the stomach but are rapidly degraded in the upper intestine. […] However, linaclotide is degraded rapidly in the duodenum. In intestinal fluids from both mouse, rat and humans the peptide loses its C-terminal tyrosine and forms an active metabolite. The half life for linaclotide is 3 minutes in rat intestinal fluid and 1 minute in human intestinal fluid. This metabolite is also rapidly degraded, first by reductases and then by proteases. The half life for the metabolite is about 5 minutes in rat intestinal fluid, and 3 minutes in human intestinal fluid. It is not detectable after 60 minutes in rat intestinal fluid, and after 18 minutes in human intestinal fluid (Kessler et al., 2009; Kessler et al., 2008). Thus, if released in the stomach or duodenum, an ST peptide analogue such as linaclotide will be active only in the duodenum. It is likely that an uroguanylin analogue such as plecanatide is degraded even more rapidly and therefore has an even shorter activity time.
This correlates with the free thiol concentrations in these locations and the activity of the Glutathione Reductase/Glutareduxin system activities in these locations.

[6] = human intestinal fluid; cited from earlier work
[7] = 12 weeks treatment period; cited from earlier work
[8] = cited from earlier work
[9] = cited from earlier work; remark: listed apart in the source

T1 sequence (P25092 24-1073): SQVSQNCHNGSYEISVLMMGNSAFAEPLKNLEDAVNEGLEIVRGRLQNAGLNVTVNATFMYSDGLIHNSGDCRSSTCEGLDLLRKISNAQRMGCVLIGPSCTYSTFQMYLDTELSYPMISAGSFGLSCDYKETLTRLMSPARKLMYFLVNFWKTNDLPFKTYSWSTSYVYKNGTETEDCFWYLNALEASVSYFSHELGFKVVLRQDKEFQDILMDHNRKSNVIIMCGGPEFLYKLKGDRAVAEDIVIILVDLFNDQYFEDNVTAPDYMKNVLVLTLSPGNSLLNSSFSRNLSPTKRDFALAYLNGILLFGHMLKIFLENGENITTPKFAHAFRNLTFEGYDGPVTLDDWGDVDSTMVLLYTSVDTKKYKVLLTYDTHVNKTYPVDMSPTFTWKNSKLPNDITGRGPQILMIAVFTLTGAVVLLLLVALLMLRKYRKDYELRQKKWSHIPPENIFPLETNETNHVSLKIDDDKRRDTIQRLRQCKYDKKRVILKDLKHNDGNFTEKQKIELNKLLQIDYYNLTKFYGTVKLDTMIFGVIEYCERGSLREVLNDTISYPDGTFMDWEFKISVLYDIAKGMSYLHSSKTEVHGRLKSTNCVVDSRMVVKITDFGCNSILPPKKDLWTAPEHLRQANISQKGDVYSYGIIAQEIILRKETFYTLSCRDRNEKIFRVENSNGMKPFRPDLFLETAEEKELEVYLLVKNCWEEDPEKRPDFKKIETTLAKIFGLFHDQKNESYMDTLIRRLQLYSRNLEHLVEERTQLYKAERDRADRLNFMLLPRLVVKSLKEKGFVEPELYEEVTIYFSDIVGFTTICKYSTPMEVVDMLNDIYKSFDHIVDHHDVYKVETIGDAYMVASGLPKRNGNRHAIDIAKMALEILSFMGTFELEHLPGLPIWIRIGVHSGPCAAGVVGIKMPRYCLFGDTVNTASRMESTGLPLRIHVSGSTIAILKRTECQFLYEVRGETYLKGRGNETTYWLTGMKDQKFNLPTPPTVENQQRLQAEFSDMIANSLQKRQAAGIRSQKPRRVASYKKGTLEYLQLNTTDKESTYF

H2N Asn Thr Phe Tyr Cys Cys Glu Leu Cys Cys Asn Pro Ala Cys Ala Gly Cys Tyr COOH [STa(1-18)]
Ki (GCC [1]; human colon specimens (n=24)): 1.2 nM | Ki (GCC [1]; human small intestine specimens (n=20)): 1.9 nM | Ki (GCC [2]): 1 to 4 nM | CGMP accumulation assay (T84 cells (GC-C)): ++++ | duration of response in intestinal loops (GCC [3]): significantly longer duration of response in the Ileum relative to the jejunum | decrease in the affinity for its receptor (GCC [4]): 2 log

C[C@@H]1NC(=O)[C@@H]2CCCN2C(=O)[C@H](CC(N)=O)NC(=O)[C@@H]2CSSC[C@H](N)C(=O)N[C@H]3CSSC[C@H](NC1=O)C(=O)N[C@@H]([C@@H](C)O)C(=O)NCC(=O)N[C@H](C(=O)N[C@@H](Cc1ccc(O)cc1)C(=O)O)CSSC[C@H](NC(=O)[C@H](Cc1ccc(O)cc1)NC(=O)[C@H](CCC(=O)O)NC3=O)C(=O)N2 [Linaclotide, H2N Cys Cys Glu Tyr Cys Cys Asn Pro Ala Cys Thr Gly Cys Tyr COOH] (HELM PEPTIDE1{C.C.E.Y.C.C.N.P.A.C.T.G.C.Y}$PEPTIDE1,PEPTIDE1,1:R3-6:R3|PEPTIDE1,PEPTIDE1,2:R3-10:R3|PEPTIDE1,PEPTIDE1,5:R3-13:R3$$$V2.0)
more stable in ileal intestinal fluid compared to the duodenum [5]: up to 100 × | half life [6]: 1 min | activity in the cGMP accumulation assay (T84 cells (GC-C)): lower than the STa peptide | CGMP accumulation assay (T84 cells (GC-C)): +++ | activity in the cGMP accumulation assay (T84 cells (GC-C); second experiment): lower than the STa peptide | patients achieving primary efficacy endpoint (three or more CSBMs per week and increase of at least one CSBM per week over baseline for at least nine of 12 weeks) [7]: 21% | stable in simulated gastric fluid for [8]: up to 3 hours | half life ([9]; rat duodenal fluid): about 0.44 minutes | half life ([9]; rat ileal fluid): about 30 minutes | half life ([9]; rat intestinal fluid): 3 min | half life ([9]; rat jejunal fluid): 0.36 min
